# Experimental data reported in PMC11683478, “Bioprospecting of culturable marine biofilm bacteria for novel antimicrobial peptides” (iMeta, 2024).
# Columns and labels:
# Test in all cases: Antibacterial screen at 200 μg/mL (cell density vs control)
# Type in all cases: cell-based
# Conditions in all cases: peptide 200 μg/mL, CAMHB, 5 × 10^5 CFU/mL, 37°C, 12 h, OD600; control (no AMP) = 1; three biological replicates
# [1] = system: Escherichia coli ATCC 11775
# Experimental: (§1) Eight bacterial strains were utilized in the antibacterial experiment. S. aureus ATCC 12600, B. subtilis ATCC 23857, E. coli ATCC 11775, and A. baumannii ATCC 19606 were purchased from Shanghai Beinuo Biology. M. luteus ATCC 4698 and S. bongori ATCC43975 were purchased from Shanghai Beisi Biotechnology. V. owensii ems001 and V. alginolyticus xv22 from the intestines of diseased shrimps were isolated in our laboratory. All strains were cultured in the cation‐adjusted Mueller‐Hinton broth (CAMHB) at 37°C to the logarithmic growth phase (OD600 = 0.5). Then, bacteria were gradient‐diluted using fresh CAMHB to a bacterial density of 5 × 10^5 CFU/mL. Antibacterial experiments were performed in a 96‐well plate with 200 μg/mL final peptide concentration. Four experimental groups were set up, including a blank control (200 μL CAMHB), a negative control (180 μL CAMHB plus 20 μL peptide), a positive control (180 μL bacterial culture plus 20 μL ultrapure water), and an experimental group (180 μL bacterial culture plus 20 μL peptide). Three biological replicates were conducted for each group, and OD600 values were measured after incubation at 37°C for 12 h. Every observed value was removed from the blank control group value. The value of the experimental group was then subtracted from the value of the negative control group therefore eradicating the effect of the peptide on the OD measurement. Student's t‐test allowed the estimation of a notable variation between the experimental and positive groups using a p‐value of 0.05 as the limit. […] The MIC of a peptide against a bacterium was determined as the minimum peptide concentration at which there was no visible bacterial growth.
# [2] = system: Staphylococcus aureus ATCC 12600
# Experimental: as §1
# [3] = system: Bacillus subtilis ATCC 23857
# Experimental: as §1
# [4] = system: Vibrio alginolyticus xv22
# Experimental: as §1
# [5] = system: Micrococcus luteus ATCC 4698
# Experimental: as §1
# Vibrio owensii ems001 = system: Vibrio owensii ems001
# Experimental: as §1
# [6] = system: Acinetobacter baumannii ATCC 19606
# Experimental: as §1
# [7] = system: Salmonella bongori ATCC 43975
# Experimental: as §1
Sequence,"cell density relative to control, E. coli ATCC 11775 [1]","cell density relative to control, S. aureus ATCC 12600 [2]","cell density relative to control, B. subtilis ATCC 23857 [3]","cell density relative to control, V. alginolyticus xv22 [4]","cell density relative to control, M. luteus ATCC 4698 [5]","cell density relative to control, V. owensii ems001 (Vibrio owensii ems001)","cell density relative to control, A. baumannii ATCC 19606 [6]","cell density relative to control, S. bongori ATCC 43975 [7]"
"MGTYPKVGNSHWKR [Cand-69, chemically synthesized candidate AMP predicted from marine biofilm bacteria]",1,0.819,1,1,1,1,0.889,0.886
"MICWCAKICCSCSAFRRWWKRNGTAC [Cand-57, chemically synthesized candidate AMP predicted from marine biofilm bacteria]",0.456,0,0,0,1,0.002,0.653,0.134
"MIYICTRITKCKLHGGCSSVG [Cand-155, chemically synthesized candidate AMP predicted from marine biofilm bacteria]",1,0,0.99,1,1,0.77,1,1
"MKALRRFLSCKVCSHALN [Cand-160, chemically synthesized candidate AMP predicted from marine biofilm bacteria]",0.406,0,0,0.001,0.638,0.442,0.001,0.072
"MKGLSKCVTHVVTAA [Cand-115, chemically synthesized candidate AMP predicted from marine biofilm bacteria]",1,0.907,1,1,1,0.994,1,0.935
"MKRLKKCVLSSLSI [Cand-126, chemically synthesized candidate AMP predicted from marine biofilm bacteria]",0.448,0,0.301,0.039,0,1,0.191,0.299
"MLKLSWNLCRPIGRRW [Cand-186, chemically synthesized candidate AMP predicted from marine biofilm bacteria]",0.036,0.112,0,0.192,0.164,0.091,0.276,0.245
"MLRRIGRMWRKLHPHGQ [Cand-10, chemically synthesized candidate AMP predicted from marine biofilm bacteria]",0.001,0.007,0.032,0.001,0.001,0.041,0.009,0.009
"MLTTIAKSTKKCKPKSCCACSLYRC [Cand-216, chemically synthesized candidate AMP predicted from marine biofilm bacteria]",0.832,0.86,0.845,0,0.978,0.018,1,0.556
"MPASRRCRPCCRLSGC [Cand-7, chemically synthesized candidate AMP predicted from marine biofilm bacteria]",0.989,0.01,0.065,0.016,1,0.114,1,1
"MPKRPWRACSSIG [Cand-212, chemically synthesized candidate AMP predicted from marine biofilm bacteria]",1,0.896,1,1,1,1,0.835,0.839
"MPKVKTKVCHRR [Cand-26, chemically synthesized candidate AMP predicted from marine biofilm bacteria]",1,0.897,0.676,0,1,0.917,0.88,0.862
"MQPILKKAAPKHVGYFYKCYL [Cand-119, chemically synthesized candidate AMP predicted from marine biofilm bacteria]",0.618,0,0.838,0.73,1,0.046,0.908,0.699
"MRHNMCRIGGRL [Cand-203, chemically synthesized candidate AMP predicted from marine biofilm bacteria]",1,1,1,0.004,0.966,1,1,0.825
"MRKGCKLIPCICDVNCRRRTG [Cand-8, chemically synthesized candidate AMP predicted from marine biofilm bacteria]",0,0.364,0.257,0.286,0,0.653,0.201,0
